{"source": "patent US20220295833A1", "about": "“SWEETENER BLENDS WITH IMPROVED TASTE” (The Coca-Cola Company, priority 2019, published 2022)", "origin": "cited, not measured here"}
{"smiles": "C=C1C[C@@]23CC[C@H]4[C@@](C)(CCC[C@@]4(C)C(=O)O[C@@H]4O[C@H](CO)[C@@H](O)[C@H](O)[C@H]4O)[C@@H]2CC[C@]1(O[C@@H]1O[C@H](CO)[C@@H](O)[C@H](O[C@@H]2O[C@H](CO)[C@@H](O)[C@H](O)[C@H]2O)[C@H]1O[C@@H]1O[C@H](CO)[C@@H](O)[C@H](O)[C@H]1O)C3", "note": "[Rebaudioside A]", "values": [{"measurement": "aqueous solubility", "result": "about 0.8 wt %"}]}
